Data reported in patent publication US20140335166A1, “Methods of Making and Using Nano Scale Particles” (priority 2013, published 2014).

Tested on: Cultured liver cells
Assay: Phosphatidylcholine biosynthesis as measure of cell function in cultured liver cells incubated with ethanol
Type: cell-based
Conditions: 100 mM ethanol, 24 hours
Protocol: As an example of the effectiveness of using the PPC, the following experiments were conducted. Cultured liver cells were incubated for 24 hours with 100 mM ethanol in the presence of (1) water, (2) VEP/EPC (egg phosphatidylcholine), or (3) VEP/PPC. Agent-dependent alterations in cell function were determined by measuring phosphatidylcholine biosynthesis. Similar results were obtained in the three separate preparations of cultured cells, all of which are reflected in the Table 1 set forth below. Control cells are expressed as 100%, meaning full cellular function. A reduction below 100% represents a decrease in cell function.

Structure (SMILES): CCO [Ethanol]
- reduction in cell function from control cells: 63%
- % Control ± SEM (phosphatidylcholine biosynthesis, cell function) (control cells = 100%, VEP/EPC (15 Mm EPC), VEP/PPC (15 Mm VEP and 30 Mm PPC)): 37 ± 1 %
